Patent US20060105061A1, “Galenical composition” (priority 2004, published 2006)
Read-outs that look alike come from different tables or passages of the source.

Tests used:
[1] = test system: normal hepatocytes; assay: Metal-induced lipid peroxidation (MDA) in normal cultured hepatocytes; format: cell-based, Wistar rats; conditions: for IC50: Rattus norvegicus, Hepatocyte, normal hepatocytes, 100 μM, read-out: IC50 of lipid peroxidation inhibition
Text: (§1) Isolation and culture of hepatocytes: Male Wistar rats weighing 180 to 210 g were fed with standard chow and water ad libitum. Hepatocytes were isolated by collagenase perfusion method as described by Wolkoff et al. (J Clin Invest 1987; 79: 1259-1268). Briefly, the liver was perfused with collagenase type IV (Sigma Chemical, St. Louis, Mo., USA) and isolated hepatocytes were suspended in culture medium consisting of Waymouth's 752/1 (Gibco, Grand Island, N.Y., USA) containing 5% heat-inactivated fetal bovine serum, 2.5 mM CaCl2, 5 μg/mL bovine insulin (Sigma), 100 U/mL penicillin and 0.1 mg/mL streptomycin. The isolated cells were further fractionated on Percoll density gradients to obtain a viability higher than 98%, as ascertained by trypan blue. Approximately 1.5×10^6 cells in 3 mL or approximately 5.0×10^6 cells in 10 mL in individual 60- or 100-mm diameter Lux culture dishes were placed in an incubator in an atmosphere of […] at 37° C., and then separately cultured. After a 9 hr incubation, the monolayer of hepatocytes was cultured for an additional 12 hr in the medium containing 1.0 mM α-linolenic acid (LNA)-bovine serum albumin (BSA). Seventy percent or more of added LNA was adsorbed by cultured cells after incubation.
(§2) After incubation for 6 hr, the medium was separated. Malonyldialdehyde (MDA) in the medium was assessed by a slight modification of the Uchiyama and Mihara method (Anal Biochem 1978; 86: 271-278). Briefly, to 0.1 ml of the medium in a 12 ml glass tube, 3 ml of 1% […] and 1 ml of 0.67% thiobarbituric acid were added and heated at 100° C. for 45 min. After cooling in ice water, 4 ml of n-butanol was added and the resulting mixture was shaken and then centrifuged to separate the butanol layer. The fluorescence intensity in the butanol layer was assayed at the excitation and emission wavelengths of 515 and 553 nm, respectively. The auto-oxidation products of fatty acid in the medium were within 0.3 nmol and were used as blank. Dimethyl sulfoxide (20 μl) was diluted in 2000 μl of the culture medium, including control cultures of metal ions only in the absence of the test compounds and the final concentration of 1% dimethyl sulfoxide had no measurable effect on lipid peroxidation in basal cultured hepatocytes.

[2] = test system: LNA-loaded hepatocytes; assay: Metal-induced lipid peroxidation (MDA) in LNA-loaded hepatocytes; format: cell-based, Wistar rats; conditions: Rattus norvegicus, Hepatocyte, LNA-loaded cells, 100 μM, read-out: IC50 of lipid peroxidation inhibition
Text: as §1
as §2, with “Dimethyl sulfoxide (20 μl) was diluted in 2000 μl of the culture medium, including control cultures of metal ions only in the absence of the test compounds and the final concentration of 1% dimethyl sulfoxide had no measurable effect on lipid peroxidation in basal cultured hepatocytes.” left out

[3] = test system: lysosomal fractions; assay: Oxidative damage tests of lysosomes: enzyme release with AAPH or AMVN radical generators; format: biochemical, Wistar rats; conditions: 10^−4M, ± SE
Experimental: (§3) Preparation of lysosomal fractions: After homogenizing in 9 volumes of 0.3 M sucrose, the liver was centrifuged at 450×g for 10 min. The supernatants were again centrifuged at 3500×g for 10 min, and the lysosome-containing supernatant was centrifuged at 10000×g for 10 min. The pellets were washed and centrifuged at 10000×g for 10 min, and resuspended in the sucrose buffer to a protein concentration of 15 mg/ml.
Oxidative damage tests of lysosomes: Assays for the release of acid phosphatase and β-N-acetylglucosaminidase from lysosomes were carried out by incubating lysosomal suspensions in the presence of test compounds. […] For this experiment, lysosomal suspensions were preincubated in the presence of 1 mM of the test compounds for 30 min and centrifuged at 12000×g for 10 min. Then the pellets were washed in 0.15 M KCl-5 mM Tris buffer (pH 7.4), centrifuged and re-suspended in 0.1M acetate buffer (pH 5.5).

[4] = test system: lysosomal fractions; assay: Lysosome fragility test: LDH leakage and β-galactosidase release with metal ions; format: biochemical, Wistar rats; conditions: YHK at the higher concentration, p<0.05
Experimental: as §3
Lysosome fragility test: The fraction was incubated with the test compound and each of metal ions and β-galactosidase activity was measured in accordance with the method of Olsson et al. (Anal Cell Pathol 1990; 2: 179-188), using 4-methylumbelliferyl-β-galactosidase as a substrate. The results were expressed as percentage of total β-galactosidase released. Lactate dehydrogenase leakage was also measured in the culture medium in accordance with the method of Hillaire et al. (Hepatology 1995; 22: 82-87).

β-galactosidase release from lysosomes [4]: significantly decreased
SMILES: COc1cc(C2Oc3cc([C@H]4Oc5cc(O)cc(O)c5C(=O)[C@@H]4O)ccc3OC2CO)ccc1O (stereo partly drawn) [Sylibin, sylibin]
IC50 ([1]; CuSO4-induced): 7.3 ± 0.3 µM | IC50 ([1]; FeSO4-induced): 18.9 ± 3.2 µM | IC50 ([1]; VCl3-induced): 10.8 ± 1.2 µM | MDA generation in the medium ([1]; metal catalysts, up to 6 hr, p<0.05): significantly decreased | IC50 ([2]; CuSO4-induced): 16.8 ± 1.5 µM | IC50 ([2]; FeSO4-induced): 79.9 ± 9.2 µM | IC50 ([2]; VCl3-induced): 17.3 ± 1.2 µM | Acid phosphatase release, enzyme activity ([3]; AAPH-induced release): 51.9 ± 5.6 % of control | β-N-acetylglucosaminidase release, enzyme activity ([3]; AAPH-induced release): 54.6 ± 4.7 % of control | Acid phosphatase release, enzyme activity ([3]; AMVN-induced release): 83.9 ± 10.4 % of control | β-N-acetylglucosaminidase release, enzyme activity ([3]; AMVN-induced release): 77.3 ± 7.4 % of control
